Source: ChEMBL document CHEMBL1143292, “A small molecule inhibitor selective for a variant ATP-binding site of the chaperonin GroEL” (Bioorg Med Chem Lett, 2009)
Activity calls are given as the source filed them.

What was measured:
[1] = test system: Chaperonin GroEL (Escherichia coli (strain K12)), P0A6F5 [I493C]; assay: (§1) Inhibition of Escherichia coli 60 kDa chaperonin groEL refolding activity assessed as recovered enzyme activity of bovine rhodanese at 50 uM
[2] = test system: Escherichia coli; assay: as §1
[3] = test system: Escherichia coli; assay: Inhibition of Escherichia coli 60 kDa chaperonin groEL ATPase activity assessed as inorganic phosphate release at 50 uM by Malachite green complex formation assay
[4] = test system: Chaperonin GroEL (Escherichia coli (strain K12)), P0A6F5 [I493C]; assay: Inhibition of Escherichia coli 60 kDa chaperonin groEL I493C mutant
[5] = test system: Chaperonin GroEL (Escherichia coli (strain K12)), P0A6F5 [I493C]; assay: Inhibition of Escherichia coli 60 kDa chaperonin groEL I493C mutant ATPase activity assessed as inorganic phosphate release at 50 uM by Malachite green complex formation assay
[6] = test system: Chaperonin GroEL (Escherichia coli (strain K12)), P0A6F5 [I493C]; assay: (§2) Inhibition of Escherichia coli 60 kDa chaperonin groEL refolding activity assessed as recovered enzyme activity of pig heart malate dehydrogenase at 50 uM
[7] = test system: Escherichia coli; assay: as §2

Measured: Activity

Chaperonin GroEL (Escherichia coli (strain K12)), P0A6F5 [I493C], sequence (P0A6F5 whole entry I493C): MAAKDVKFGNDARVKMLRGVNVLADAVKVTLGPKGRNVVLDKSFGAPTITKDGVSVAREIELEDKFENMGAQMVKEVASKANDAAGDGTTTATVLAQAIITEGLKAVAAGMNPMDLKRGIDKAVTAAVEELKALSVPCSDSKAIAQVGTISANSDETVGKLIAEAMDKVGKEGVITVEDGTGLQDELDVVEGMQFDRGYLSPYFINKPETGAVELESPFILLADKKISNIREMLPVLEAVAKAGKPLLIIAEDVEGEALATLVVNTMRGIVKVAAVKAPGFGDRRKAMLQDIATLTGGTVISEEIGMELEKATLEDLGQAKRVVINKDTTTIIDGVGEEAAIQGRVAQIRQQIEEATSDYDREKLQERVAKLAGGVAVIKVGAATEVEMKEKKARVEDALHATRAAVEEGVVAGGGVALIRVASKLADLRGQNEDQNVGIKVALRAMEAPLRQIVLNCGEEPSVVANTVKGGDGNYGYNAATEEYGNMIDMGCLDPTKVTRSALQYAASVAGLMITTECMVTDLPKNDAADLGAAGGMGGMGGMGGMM

CC(C)(C)n1nc(-c2ccc(NC(=O)C3CCCC3)cc2)c2c(N)ncnc21
active: all assays above
